Here are results for one substance from patent US20260234185A1, “ANTI-AGING COMPOSITION COMPRISING PEPTIDE COMPLEX AS ACTIVE INGREDIENT” (priority 2023, published 2026).

Where no end group is shown, it is not given here.

Experiment [1] relates to fibroblast growth factor 21 (FGF21) gene. The experiment can be described thus: RT-PCR of FGF21 gene expression in palmitate-treated adipocytes. The format is cell-based. The following applies: 3T3-L1 adipocytes, 25 μM palmitate 30 minutes; 0.2, 2, 20 μg/mL; 24 hours; RT-PCR vs palmitate control (PA) (FIGS. 4a, 4b). As for the experimental part:
(§1) An experiment was performed to determine whether the peptide complex prepared in Preparation Example 1 increases the gene expression of longevity-related genes, FGF21, SIRT1, AMPK, and FOXO3A, in adipocytes in a state of insulin metabolic disorder induced by palmitate treatment.
(§2) When 3T3-L1 preadipocytes reached 80% confluence, they were seeded at 5×10^3 cells/well in a 96-well plate and used for the experiment. Two days after reaching confluence, the medium was replaced with differentiation-inducing medium to induce the differentiation into adipocytes, and two days after the induction, the medium was cultured for 2 days in a medium containing 10% FBS and 10 μg/mL insulin, and then the medium was replaced with 10% FBS every 2 days until their differentiation into adipocytes. After differentiation was complete, the medium was replaced with glucose-free medium, cultured for 16 hours, and then starvation was induced by culturing for 40 minutes in 100 μL KPPH buffer containing 2% BSA. After treating with 25 μM palmitate for 30 minutes, the peptide complexes were treated at concentrations of 0.2 μg/mL, 2 μg/mL, and 20 μg/mL, cultured for 24 hours, and RNA was extracted after 24 hours and RT-PCR was performed. […] Subsequently, the mRNA expression pattern was determined by agarose gel electrophoresis.

For experiment [2], the system named is AMP-activated protein kinase (AMPK) gene. The experiment is described as follows: RT-PCR of AMPK gene expression in palmitate-treated adipocytes. It is filed as cell-based. The following applies: 3T3-L1 adipocytes, 25 μM palmitate 30 minutes; 0.2, 2, 20 μg/mL; 24 hours; RT-PCR vs palmitate control (PA) (FIGS. 4a, 4b). On the procedure:
as §1, §2

Another experiment deals with IκBα. The experiment can be described thus: Western blot of IκBα phosphorylation in adipocytes with palmitate-induced inflammation. The format is cell-based. To be noted: 3T3-L1 adipocytes, inflammation induced by 25 μM palmitate; 0.2, 2, 20 μg/mL; 24 hours; Western blot vs PA control (FIGS. 5a, 5b). As for the experimental part:
(§3) An experiment was performed to determine whether the peptide complex prepared in Preparation Example 1 induces a decrease in the phosphorylation of IκBα and a decrease in the expression level of the inflammatory cytokine TNFα in adipocytes under an inflammatory state induced by palmitate treatment.
(§4) When 3T3-L1 preadipocytes reached 80% confluence, they were seeded at 5×10^3 cells/well in a 96-well plate and used for the experiment. Two days after reaching confluence, the medium was replaced with a differentiation-inducing medium to induce the differentiation into adipocytes. Two days after the induction, the cells were cultured for 2 days in a medium containing 10% FBS and 10 μg/mL insulin, and then the medium was replaced with 10% FBS every days 2 until their differentiation into adipocytes. Once the differentiation was complete, the medium was replaced with a serum-free medium and cultured for 4 hours to induce starvation. After treating with 25 μM palmitate for 30 minutes, the peptide complexes were treated at concentrations of 0.2 μg/mL, 2 μg/mL, and 20 μg/mL and incubated for 24 hours. The control group (PA) was treated only with palmitate but not with the peptide complex. After dissolving by adding dissolution buffer thereto, the proteins obtained by centrifugation at 4° C. and 12,000 rpm for 30 minutes were quantified using a BCA kit. […]

In experiment [3] the test system is inflammatory cytokine TNFα. The experiment is described as follows: Western blot of TNFα expression in adipocytes with palmitate-induced inflammation. The format is cell-based. The following applies: 3T3-L1 adipocytes, inflammation induced by 25 μM palmitate; 0.2, 2, 20 μg/mL; 24 hours; Western blot vs PA control (FIGS. 5a, 5b). As for the experimental part:
as §3, §4

A further experiment concerns SIRT1. The experiment is described as follows: Western blot of SIRT1 protein expression in myocytes. The following applies: differentiated C2C12 myocytes; 0.2, 2, 20 μg/mL; 24 hours; Western blot (FIGS. 6a, 6b). It is filed as cell-based, mouse. On the procedure: An experiment was performed to determine whether the peptide complex increases the phosphorylation of AMPK and the expression of SIRT1 and FGF21 proteins in myocytes.
C2C12 cells, mouse-derived myoblasts, were cultured in DMEM medium containing 1% P/S and 2% BCS. When the cell confluency reached 70-80%, the cells were seeded in a 6-well culture plate. When the cell confluency in the 6-well culture plate reached 100%, the medium was replaced with differentiation medium (1% P/S, 2% horse serum), and thereafter, the differentiation medium (1% P/S, 2% horse serum) was replaced once every two days. Five days after the first replacement, the peptide complex was treated at concentrations of 0.2 μg/mL, 2 μg/mL, and 20 μg/mL and cultured for 24 hours. The group untreated with the peptide complex was used as the control. After dissolving by adding dissolution buffer thereto, the proteins obtained were centrifuged at 4° C. and 12,000 rpm for 30 minutes, and quantified using a BCA kit. The proteins were subjected to sodium dodecyl sulfate-polyacrylamide gel electrophoresis (SDS-PAGE) and then electrotransferred onto a membrane. The membrane with the proteins attached was blocked by treating it with 5% skim milk, and then the primary antibody was reacted overnight at 4° C. […]

Consider “peptide complex: prepared by mixing equal amounts of the peptide of SEQ ID NO: 1 (LKTRN) and the peptide of SEQ ID NO: 2 (KGSATGWMA) (also: mixture of two peptides)”, for which the “expression of fibroblast growth factor 21 (FGF21) gene” value in experiment [1] is “increased”. Also, the “expression of AMP-activated protein kinase (AMPK) gene” value in experiment [2] is “increased”. Besides, the “phosphorylation of IκBα” value in the experiment with IκBα was “reduced”. Further, in experiment [3], the “expression level of TNFα” value is “reduced”. Also, the “expression level of SIRT1 protein” value in the experiment on SIRT1 is reported as “increased”.
